pIC50: −log10 of the molar value.
Assays:
Assay type in all cases: cell-based
[1] = tested on: transcription factor TEAD; test: Activity inhibition test of transcription factor TEAD (ONE-Glo luciferase assay, Hippo Pathway TEAD reporter-MCF7 cell line); details: Homo sapiens; TEAD Reporter-MCF7 cells, 24 hours treatment, luciferase luminescence
Method: The transcription factor TEAD activity of the compounds prepared in Examples was measured by the ONE-Glo™ Luciferase assay (Promega, Catalog #E6110) method using the Hippo Pathway TEAD reporter-MCF7 recombinant cell line (BPS Bioscience, Catalog #60618).
Specifically, the TEAD Reporter-MCF7 cell line contains the firefly luciferase gene whose expression is regulated under the control of TEAD response elements in the MCF7, which is a human breast cancer cell line. In the cell line, a non-phosphorylated YAP/TAZ exists in the nucleus in a non-stressed condition, which continuously induces expression of the luciferase reporter.
TEAD Reporter-MCF7 cells were prepared in 100 μL of cell culture medium (MEM medium, 10% FBS, 1% P/S, 400 μg/mL Geneticin, 1% […], 1 mM NA pyruvate, 10 μg/mL Insulin) in a white clear bottom 96-well microplate. The prepared plate was incubated in a 5% CO2 incubator at 37° C. for 24 hours, and then the previously prepared compounds of Examples were finally treated at concentrations of 0.0005, 0.005, 0.05, 0.5 and 5 μM, which were repeated three times for all treatment solutions. The plates treated with the compounds of Examples were incubated in a 5% CO2 incubator at 37° C. for 24 hours. 100 μL/well of the substrate aqueous solution containing luciferin was added to a white clear-bottom 96 well microplate, thereby initiating an enzyme reaction. The reaction was performed at room temperature for 5 minutes, and the luminescence (integration time 1000 ms) was measured using a Flexstation3 multi-mode microplate reader. In accordance with the instructions for the ONE-Glo™ Luciferase Assay, the luciferase enzyme activity, which represents the activity of the transcription factor TEAD, was measured by a chemiluminescence method, and the inhibitory activity of the compound according to the present disclosure was calculated. The results of each compound were analyzed using Microsoft Excel, and the IC50 values were calculated by GraphPad Prism software.

NCI-H226 cells = test: Cell growth inhibition test (CellTiter-Glo), NCI-H226; details: Homo sapiens, NCI-H226 cell line
Method: (§1) The cell growth for the compounds prepared in Examples was measured by CellTiter-Glo® Luminescednt Cell Viability (Promega, Catalog #G7571) method using NCI-H226 (addexbio), NCI-H28 (Korea Cell Line Bank) cell lines. This evaluation method is a method in which when luciferase enzyme is activated by ATP flowing out from living cells, it reacts with a luciferin substrate, and the enzyme activity at this time is measured to confirm cell viability.
(§2) Specifically, NCI-H226, and NCI-H28 cells were prepared in 100 μL of cell culture medium (RPMI medium, 10% FBS, 1% P/S, 4.5 g/L D-Glucose, 2.383 g/L HEPES Buffer, L-Glutamine, 1.5 g/L Sodium Bicarbonate, 110 mg/L Sodium pyruvate) in a white clear bottom 96-well microplate. The prepared plate was incubated in a 5% CO2 incubator at 37° C. for 24 hours, and then the previously prepared compounds of Examples were finally treated at concentrations of 0.0005, 0.005, 0.05, 0.5 and 5 μM, which was repeated three times for all treatment solutions.
(§3) The plates treated with the compounds of Examples were incubated in a 5% CO2 incubator at 37° C. 100 μL/well of the substrate aqueous solution containing luciferin was added to a white clear-bottom 96 well microplate, thereby initiating an enzyme reaction. The reaction was performed at room temperature in the dark for 10 minutes, and the luminescence was measured using a Flexstation3 multi-mode microplate reader. In accordance with the instructions for the CellTiter-Glo™ Luminescednt Cell Viability, the luciferase enzyme activity, which represents the amount of ATP, was measured by a chemiluminescence method, and the inhibitory activity of the compounds according to the present disclosure was calculated. The results of each compound were analyzed using Microsoft Excel, and the IC50 values were calculated using GraphPad Prism software.

NCI-H28 cells = test: Cell growth inhibition test (CellTiter-Glo), NCI-H28; details: Homo sapiens, NCI-H28 cell line
Method: as §1, §2, §3

pIC50 [1]	pIC50 (NCI-H226 cells)	pIC50 (NCI-H28 cells)	SMILES
8.46	8.60	5.82	C=CC(=O)Nc1cc(-c2cn(C)cn2)c2[nH]c(-c3ccc(F)cc3)cc2c1 [Example 3, N-(2-(4-fluorophenyl)-7-(1-methyl-1H-imidazol-4-yl)-1H-indol-5-yl)acrylamide]
6.90	6.47	6.26	C=CC(=O)Nc1cc(-c2ccccn2)c2[nH]c(-c3ccc(Cl)c(Cl)c3)cc2c1 [Example 30, N-(2-(3,4-dichlorophenyl)-7-(pyridin-2-yl)-1H-indol-5-yl)acrylamide]
7.22	7.70	5.61	C=CC(=O)Nc1cc(-c2cn(C)cn2)c2[nH]c(-c3cccc(Cl)c3)cc2c1 [Example 10, N-(2-(3-chlorophenyl)-7-(1-methyl-1H-imidazol-4-yl)-1H-indol-5-yl)acrylamide]
7.31	7.60	5.64	C=CC(=O)Nc1cc(-c2cn(C)cn2)c2[nH]c(-c3ccc(F)c(C)c3)cc2c1 [Example 14, N-(2-(4-fluoro-3-methylphenyl)-7-(1-methyl-1H-imidazol-4-yl)-1H-indol-5-yl)acrylamide]

From patent US20260242360A1, “Novel Compound, and Pharmaceutical Composition for Prevention or Treatment of Cancer or Tumors Comprising Same” (Daewoong Pharmaceutical Co., Ltd., priority 2023, published 2026)
